Data on 1 substance can be found in patent publication US6020374A, “Biologically active synthetic dye compounds” (priority 1998, dated 2000).

The subject of one series is MAPKs 1 and 2. Put plainly: Activation of MAPKs in FaO cells. Format: cell-based, rat. As to conditions: 5 mins., EB 200 μg/ml, insulin 600 ng/ml. How it is done:
(§1) FIG. 9 is the tyrosine phosphorylation of the IR cascade in Fao cells: A--Immunoblot analysis: Fao cells were deprived of serum for 20 hours, then incubated with EB, ATA, at 200 μg/ml or insulin at 600 ng/ml for 5 mins. Cell extracts were subjected to immunoprecipitation with antibodies to: IR β-subunit (αIR), IRS-1 (αIRS-1) and to IRS-2 (αIRS-2). The immunoprecipitates and total cell extracts were analyzed by SDS-PAGE. Proteins were transferred to nitrocellulose papers, and phosphotyrosine containing proteins were probed with anti-phosphotyrosine antibodies (αP-Tyr), antibody to the 85-kDa subunit of PI3-kinase (αp85) and antibodies to active MAPK (α active MAPK). The immunoblots were visualized by ECL (Amersham).
Nitrocellulose blots of proteins were incubated with the antibodies, and proteins were detected by enhanced chemiluminescence using horseradish peroxidase-labeled protein A, horseradish peroxidase-labeled anti rabbit IgG or horseradish peroxidase-labeled anti-mouse IgG.
In the rat hepatoma cell line FaO, EB and insulin, enhanced IRS-1 and IRS-2 tyrosine phosphorylation and their association with the 85-kDa regulatory subunit of the PI-kinase (FIG. 9A). PI3-kinase activity increases following its association with IRS-1 and IRS-2 (FIG. 9C). MAPKs 1 and 2 were activated by EB and insulin (FIG. 9A).

A further series has as its system IRS-2. Put plainly: IRS-2 tyrosine phosphorylation and association with p85 in FaO cells. Format: cell-based, rat. As to conditions: 5 mins., EB 200 μg/ml, insulin 600 ng/ml. How it is done: as §1
(§2) MCF-7 cells were grown in 35 or 100 mm dishes in DMEM with 5% bovine fetal serum. Rat hepato FaO cells were grown in RPMI 1640 medium supplemented with 10% fetal calf serum. Subconfluent monolayers of MCF-7 cells or FaO cells, were deprived of serum for 20 hours prior to each experiment. The medium was removed, and cells were incubated at 37° C. under the conditions as indicated for each experiment. […]
(§3) Nitrocellulose blots of proteins were incubated with the antibodies, and proteins were detected by enhanced chemiluminescence using horseradish peroxidase-labeled protein A, horseradish peroxidase-labeled anti rabbit IgG or horseradish peroxidase-labeled anti-mouse IgG. […]

Series [1] has as its system 3T3 L1 adipocytes. Put plainly: Lipogenesis in 3T3 L1 adipocytes. Format: cell-based. The settings on record: 20 mins., EB, ATA 200 μg/ml, insulin 600 ng/ml. How it is done:
(§4) FIG. 11 is the metabolic effects in 3T3 L1 adipocytes: Fully differentiated 3T3 L1 adipocytes were incubated with EB, ATA or fuchsin (FUCH) each at 200 μg/ml, or with 600 ng/ml of insulin for 20 mins. (A, B, C) or 5 mins. (D). CON indicates no additive.
C--Lipogenesis. Cells were incubated with 5 mM(U-^14 C) glucose (1 μCi/ml) for 60 mins. Radioactivity was determined in the cellular lipid fraction.

Series [2] has as its system 3T3 L1 adipocytes. Description: 2-deoxyglucose uptake in 3T3 L1 adipocytes. As to conditions: 20 mins., EB, ATA 200 μg/ml, insulin 600 ng/ml. Format: cell-based. How it is done: as §4
A--2-deoxyglucose uptake. Hexose uptake was measured for 10 mins. using 50 μM 2-deoxy-(^3 H) glucose (1 μCi/ml). Non-specific uptake was determined in the presence of cytochalasin B (50 μM).

Series [3] concerns IR, IRS-1 and the 85-kDa regulatory subunit of PI3-kinase. Description: In vivo tyrosine phosphorylation of the IR cascade in rat liver. The settings on record: Sprague-Dawley male rats, portal vein injection, EB 20 mg/rat, insulin 1 u/rat. How it is done: A--Immunoblot analysis. Rat liver extracts were subjected to immunoprecipitation and blotting with the indicated antibodies, as described in the legend to FIG. 9A.
(§5) EB (20 mg/rat) or insulin (1 u/rat) was injected into about 120 g weighing Sprague-Dawley male rats, via the portal vein. Control rats were injected with saline (SAL) alone. The rats were killed and the livers excised and frozen in liquid nitrogen at the indicated times.

Another series has as its system PI3-kinase. Description: In vivo PI3-kinase activity in rat liver. The settings on record: Sprague-Dawley male rats, portal vein, 5 mins. after injection, EB 20 mg/rat, insulin 1 u/rat. The procedure: B--Induction of PI3-kinase. PI3-kinase activity, 5 mins. after injection was assayed as described in FIG. 9C. The results are representative of 2 to 4 independent experiments.
as §5

The subject of another series is IRS-1. Description: IRS-1 tyrosine phosphorylation and association with p85 in FaO cells. The series is classed as cell-based, rat. As to conditions: 5 mins., EB 200 μg/ml, insulin 600 ng/ml. How it is done: as §1, §2, §3
The subject of series [4] is 3T3 L1 adipocytes. Description: Glycogen synthesis in 3T3 L1 adipocytes. The series is classed as cell-based. As to conditions: 20 mins., EB, ATA 200 μg/ml, insulin 600 ng/ml. The procedure: as §4
B--Glycogen synthesis. Cells were incubated with (^14 C)-glucose for 10 mins. Radioactivity was determined in the precipitated glycogen fraction.

Take insulin: The hormone insulin: the “Activation of MAPKs 1 and 2” value in the series on MAPKs 1 and 2 was “activated”. For the same substance, in the series with IRS-2, the “IRS-2 tyrosine phosphorylation and association with the 85-kDa regulatory subunit of PI-kinase” value was “enhanced”. Also, the Lipogenesis result with 3T3 L1 adipocytes [1] is recorded as “increase”. For the same substance, in the series with 3T3 L1 adipocytes [2], the Glucose uptake entry was “increase glucose uptake”. In addition, in series [3], the “Tyrosine phosphorylation of IR, IRS-1 and 85-kDa subunit of PI3-kinase in liver” value was “phosphorylated tyrosines of IR, IRS-1 and the 85-kDa of the regulatory subunit of PI3-kinase”. In addition, the “PI3-kinase activity in liver” value in the series with PI3-kinase is “increased”. The “IRS-1 tyrosine phosphorylation and association with the 85-kDa regulatory subunit of PI-kinase” value in the series with IRS-1 is “enhanced”. In addition, the Glycogen synthesis result in the series with 3T3 L1 adipocytes [4] was “increase”.
